Results on 14 sequences are retold here after patent publication US11872263B2, “AIMP1 protein fragment and hair growth-promoting composition containing same as active ingredient” (CUREBIO THERAPEUTICS, priority 2016, dated 2024).

Assay [1] relates to CD34+ hair follicle stem cells. As to the kind of experiment: In vitro hair growth assay / BrdU proliferation assay with CD34+ hair follicle stem cells. The following applies: each peptide 100 nM, 24 hours. Type of assay: cell-based, mouse. On the procedure: The hair of the dorsal skin of 7 weeks old male C57BL6 mice (purchased from Orient Bio Inc.) were cut with a clipper and skin tissue samples of the depilated dorsal region of the mice were collected. The collected skin tissue samples were immersed in medium using collagenase, DNase I, and hyaluronidase, and cells were isolated using Gentle MACSTM Dissociator (Miltenyi Biotec). After the cells were separated, the separated cells were incubated with a mouse CD34-Biotin antibody (Miltenyi Biotec). Cells and antibody solutions were incubated with streptavidin microbeads (Miltenyi Biotec) and then separated using LS column (Miltenyi Biotec). The separated cells were cultured in DMEM medium containing 10% FBS, 1% penicillin/streptomycin solution in humidified air of 95% 02 and 5% CO2 at 37° C.
Cell proliferation can be confirmed using the BrdU cell proliferation assay kit (Cell Signaling). Proliferation assays were performed using protocols presented by […]. Briefly, the cells were incubated with BrdU for 2 h. The primary BrdU detection antibody was incubated for 1 hour and the secondary anti-mouse IgG, HRP-conjugate antibody was incubated for 30 minutes.
A hair growth in vitro assay was performed using the Cyquant Assay (Thermo Fisher). […]

The subject of assay [2] is dorsal hair of depilated C57BL6 mice. The assay is described as follows: In vivo hair regrowth after depilation of dorsal skin of mice. Also noted: species or system mouse. To be noted: 13 days after depilation, 100 nM polypeptide, 80 μl topical once a day. How it is done:
(§1) The hair of the dorsal skin of mice (7 weeks old male C57BL6, purchased from Orient Bio Inc.) was cut out with a clipper, and hair removal cream (Niclean, Ildong Pharmaceutical) was applied. The depilated area was about 2×2.5 cm. Mice were treated with 20% glycerol/PBS (control group), 3% Minoxidil (MNX, 140 mM), FGF7 (100 nM) or Neo-Pep of the present invention (polypeptide of SEQ ID NO: 1, 100 nM), respectively, once a day in 80 μl using brush, for 13 days (n=6 per group).
as §1, with “Specifically, the hair” for “The hair”, “of a mouse” for “of mice”, “group). For comparative observation, the dorsal skin of the mouse was photographed before and after the beginning of the test.” for “group).”

On to “AEADQIIEYLKQQVSLLKEK (Homo sapiens N4 polypeptide; Neo-Pep-(11-30)) [Polypeptide N4, fragment of Neo-Pep consisting of 20 consecutive amino acids without KEKA]”, for which the “inducing proliferation of CD34+ hair follicle stem cells (relative cell number)” value (from here on “inducing proliferation … (relative cell number)”) in assay [1] is “didn't show any effect”.

For the sequence “AVLKRLEQKGAEADQ (Homo sapiens N9 polypeptide; Neo-Pep-(1-15)) [Polypeptide N9, fragment of Neo-Pep consisting of 15 amino acids without KEKA]”, the “dorsal hair growth compared with control group” value in assay [2] was “didn't show such effect”.

“KGAEADQIIEYLKQQVSLLK (Homo sapiens N3 polypeptide; Neo-Pep-(9-28)) [Polypeptide N3, fragment of Neo-Pep consisting of 20 consecutive amino acids without KEKA]”: the “inducing proliferation … (relative cell number)” value in assay [1] is on record as “didn't show any effect”. The same measure, in the same setting: the same measure for “AVLKRLEQKGAEADQIIEYL (Homo sapiens N1 polypeptide; Neo-Pep-(1-20)) [Polypeptide N1, fragment of Neo-Pep consisting of 20 consecutive amino acids without KEKA]”: “didn't show any effect”; for “KQQVSLLKEKAILQATLREE (Homo sapiens N7 polypeptide; Neo-Pep-(21-40)) [Polypeptide N7, fragment of Neo-Pep comprising KEKA]”: “induced proliferation”. On the same count and under the same terms, the same measure for “YLKQQVSLLKEKAILQATLR (Homo sapiens N6 polypeptide; Neo-Pep-(19-38)) [Polypeptide N6, fragment of Neo-Pep comprising KEKA]”: “induced proliferation”. Same read-out and setting: the same measure for “IEYLKQQVSLLKEKAILQAT (Homo sapiens N5 polypeptide; Neo-Pep-(17-36)) [Polypeptide N5, fragment of Neo-Pep comprising KEKA]”: “induced proliferation”. In the case of “KQQVSLLKEKAILQA (Homo sapiens N13 polypeptide; Neo-Pep-(21-35)) [Polypeptide N13, fragment of Neo-Pep consisting of 15 amino acids comprising KEKA]”, in assay [2], the “dorsal hair growth compared with control group” value is listed as “grew much more”.

For “LKEKAILQATLREEK (Homo sapiens N14 polypeptide; Neo-Pep-(27-41)) [Polypeptide N14, fragment of Neo-Pep consisting of 15 amino acids comprising KEKA]”, in assay [2], the “dorsal hair growth compared with control group” value is “grew much more”. Still for that read-out and setting: the same measure for “EADQIIEYLKQQVSL (Homo sapiens N10 polypeptide; Neo-Pep-(12-26)) [Polypeptide N10, fragment of Neo-Pep consisting of 15 amino acids without KEKA]”: “didn't show such effect”; for “ADQIIEYLKQQVSLL (Homo sapiens N11 polypeptide; Neo-Pep-(13-27)) [Polypeptide N11, fragment of Neo-Pep consisting of 15 amino acids without KEKA]”: “didn't show such effect”; for “IEYLKQQVSLLKEKA (Homo sapiens N12 polypeptide; Neo-Pep-(17-31)) [Polypeptide N12, fragment of Neo-Pep consisting of 15 amino acids comprising KEKA]”: “grew much more”. As to “QVSLLKEKAILQATLREEK (Homo sapiens N8 polypeptide; Neo-Pep-(23-41)) [Polypeptide N8, fragment of Neo-Pep comprising KEKA]”, the “inducing proliferation … (relative cell number)” value in assay [1] is “induced proliferation”. Same read-out and setting: the same measure for “LKRLEQKGAEADQIIEYLKQ (Homo sapiens N2 polypeptide; Neo-Pep-(3-22)) [Polypeptide N2, fragment of Neo-Pep consisting of 20 consecutive amino acids without KEKA]”: “didn't show any effect”.
